Reference: US20110257144A1 (APEX LABORATORIES PRIVATE LIMITED, priority 2008, published 2011)

How the values were obtained:
[1] = Stability of raw API after 3 months in open and closed Petri dish, stability-indicating HPLC method and titration method; assay type: physicochemical; details: for Percentage Drop (%) HPLC: after 3 months; for *Initial (%): assay at the time of receipt of the API from the supplier
Description: Degradation due to oxidation is a major cause of instability of currently available Fusidic acid creams. […] It can be observed from Tables 1 and 2 that: • In the case of Fusidic Acid, there is about 7.7% loss in 3 Months at room temperature (open condition) and about 11% loss in 3 Months at 45° C. […] (open condition).

Staphylococcus aureus = experiment: In vitro antimicrobial zone of inhibition study; assay type: cell-based
Description: API-stability experiments were carried out (see tables 4-14) using the product of the present invention and products currently commercially available. Tests were carried out to observe (or measure as appropriate) the physical appearance of the product, the pH value and assay of the API over a period of time. Tests were also carried out to assess the stability by subjecting the product to stress studies such as autoclave test and oxydative degradation test. Further, in vitro antimicrobial zone of inhibition studies were also carried out over a period of time. […] The antimicrobial/antibacterial activity of the product is confirmed by the in vitro Antimicrobial Zone of Inhibition studies for the product against Staphylococcus aureus. The details of the studies are detailed below in Table 15.

| SMILES | Percentage Drop (%) HPLC ([1]; 45° C. (Open) Petri dish) | Percentage Drop (%) HPLC ([1]; RT (Open) Petri dish) | *Initial (%) ([1]; listed as FUSIDIC ACID BP) | Inference (Staphylococcus aureus; dose 10 mcg) | Zone Diameter Range (mm) (Staphylococcus aureus; dose 10 mcg) | Inference (Staphylococcus aureus; dose 20 mcg) | Zone Diameter Range (mm) (Staphylococcus aureus; dose 20 mcg) | Inference (Staphylococcus aureus; dose 50 mcg) | Zone Diameter Range (mm) (Staphylococcus aureus; dose 50 mcg) | Inference (Staphylococcus aureus; dose 10 Units) | Zone Diameter Range (mm) (Staphylococcus aureus; dose 10 Units) | stability as an API (comparison) ([1]; Sodium Fusidate versus Fusidic acid, Tables 1 and 2) | *Initial (%) ([1]; listed as Sodium Fusidate BP) |
| --- | --- | --- | --- | --- | --- | --- | --- | --- | --- | --- | --- | --- | --- |
| CC(=O)O[C@H]1C[C@@]2(C)[C@@H](C[C@@H](O)[C@H]3[C@@]4(C)CC[C@@H](O)[C@@H](C)[C@@H]4CC[C@@]32C)/C1=C(\CCC=C(C)C)C(=O)O [Fusidic acid] | about 11% | about 7.7% | 100.6% | Sensitive | 21-33 mm | Sensitive | 20-30 mm | Sensitive | 25-32 mm |  |  |  |  |
| CC1(C)S[C@@H]2[C@H](NC(=O)Cc3ccccc3)C(=O)N2[C@H]1C(=O)O [Penicillin G] |  |  |  |  |  |  |  |  |  | Resistant | 21-27 mm |  |  |
| CC(=O)O[C@H]1C[C@@]2(C)[C@@H](C[C@@H](O)[C@H]3[C@@]4(C)CC[C@@H](O)[C@@H](C)[C@@H]4CC[C@@]32C)/C1=C(\CCC=C(C)C)C(=O)O [Sodium Fusidate] | about 6% | about 2.5% |  |  |  |  |  |  |  |  |  | more stable than Fusidic acid | 98.7% |
